Assay results taken from patent US9814696B2, “Use of coumarin derivatives for the preparation of drugs for treating skin diseases” (UNIVERSITE PIERRE ET MARIE CURIE (PARIS 6), priority 2011, dated 2017).
Where two headings read alike, the source gives them in different places.

Key:
[1] = target: KLK7 (Homo sapiens, UniProt P49862); assay: KLK7 enzyme inhibition assay, fluorogenic substrate Suc-Leu-Leu-Val-Tyr-AMC; format: biochemical; conditions: for selective activity against enzyme: KLK7: Table B, among KLK5, KLK7 and KLK14
KLK7, sequence (P49862 30-253): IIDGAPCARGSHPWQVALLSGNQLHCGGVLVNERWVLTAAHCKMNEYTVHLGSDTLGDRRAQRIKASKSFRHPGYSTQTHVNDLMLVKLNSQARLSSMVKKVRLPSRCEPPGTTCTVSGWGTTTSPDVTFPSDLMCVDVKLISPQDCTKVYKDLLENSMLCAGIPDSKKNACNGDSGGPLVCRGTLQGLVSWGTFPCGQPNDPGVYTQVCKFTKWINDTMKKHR
Method: (§1) Kallikreins KLK5, KLK7 and KLK14 activities were determined by monitoring the hydrolysis of the appropriate fluorogenic substrate (λexc=355, λem=460 nm) for 15 min at 37° C. in the presence of the untreated kallikrein (control) or kallikrein that had been incubated with a test compound. Substrate and compounds were previously dissolved in DMSO, with the final solvent concentration kept constant at 2% (v/v) (KLK 5 and 14), and 4% (v/v) (KLK7). The composition of the activity buffers (pH 8.0) was 100 mM Tris-HCl, 150 mM NaCl, 0.01% (v/v) Tween 20 for the KLK5 assay, and 100 mM Tris-HCl, 1M NaCl, 0.01% (v/v) Tween 20 in the KLK 7 and 14 assays. The final concentrations were 0.6 nM (KLK5) and 100 μM (Boc-Val-Pro-Arg-AMC) (KLK5 assay), 8 nM (KLK7) and 40 μM (Suc-Leu-Leu-Val-Tyr-AMC, AMC: 7-amino-4-methyl-coumarin) (KLK7 assay), and 0.17 nM (KLK14) and 10 μM (Boc-Val-Pro-Arg-AMC) (KLK14 assay). Using the appropriate substrate, the coumarinic compounds (0.01-100 μM) were tested in duplicate for each inhibitor concentration to detect their inhibitory potential. The enzyme and the inhibitors were incubated for 15 min before the determination of the enzyme activity. Initial rates determined in control experiments (V0) were considered to be 100% of the peptidase activity; initial rates below 100% were considered to be inhibitions. The inhibitory activity of compounds was expressed as IC50 (inhibitor concentrations giving 50% inhibition). The values of IC50 were calculated by fitting the experimental data to the equation: % Inhibition=100×(1−Vi/V0)=100[I]0/(IC50+[I]0), or equation: % Inhibition=100[I]0^nH/(IC50^nH+[I]0^nH),nH is the Hill number.
(§2) The tests were realized at 37° C. after 15 min of incubation at pH 8.

[2] = target: T1, KLK14 (Homo sapiens, UniProt Q9P0G3); assay: KLK14 enzyme inhibition assay, fluorogenic substrate Boc-Val-Pro-Arg-AMC; format: biochemical; conditions: for IC50 / inhibition at 100 µM / inhibition at 50 µM: 37° C., 15 min of incubation, pH 8
T1 sequence (Q9P0G3 25-251): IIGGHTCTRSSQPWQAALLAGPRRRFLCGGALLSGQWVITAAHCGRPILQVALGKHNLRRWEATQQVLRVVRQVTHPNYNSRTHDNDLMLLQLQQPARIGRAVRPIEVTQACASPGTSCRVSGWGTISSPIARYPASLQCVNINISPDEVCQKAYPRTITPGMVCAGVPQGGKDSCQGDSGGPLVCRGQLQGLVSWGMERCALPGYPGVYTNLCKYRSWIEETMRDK
Method: as §1, §2

[3] = target: T2, KLK5 (Homo sapiens, UniProt Q9Y337); assay: KLK5 enzyme inhibition assay, fluorogenic substrate Boc-Val-Pro-Arg-AMC; format: biochemical; conditions: 37° C., 15 min of incubation, pH 8
T2 sequence (Q9Y337 23-293): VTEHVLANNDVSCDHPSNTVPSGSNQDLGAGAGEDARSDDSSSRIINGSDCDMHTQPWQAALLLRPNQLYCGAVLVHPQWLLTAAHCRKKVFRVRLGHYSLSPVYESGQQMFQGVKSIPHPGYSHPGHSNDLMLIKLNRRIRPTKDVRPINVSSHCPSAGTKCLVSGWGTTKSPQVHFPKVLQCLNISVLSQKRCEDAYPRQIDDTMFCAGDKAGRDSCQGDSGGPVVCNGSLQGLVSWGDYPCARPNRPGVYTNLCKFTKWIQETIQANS
Method: as §1, §2

[4] = tested on: normal human keratinocytes; assay: Neutral red uptake (NRU) cytotoxicity test / cell viability; format: cell-based; parameters: cytotoxicity, neutral red uptake test (FIG. 5): dose or concentration left out as unconfirmed; conditions: 48 h; for cytotoxicity, neutral red uptake test: 1 and 10 μM; for cytotoxicity, neutral red uptake test / cytotoxicity, neutral red uptake test (FIG. 5): human normal keratinocytes; for Toxicity, neutral red uptake test: normal human keratinocytes
Source text: The NRU cytotoxicity assay procedure is a cell survival/viability chemosensitivity assay based on the ability of viable cells to incorporate and bind neutral red (NR), a supravital dye. NR is a weak cationic dye that readily penetrates cell membranes by non-ionic diffusion and accumulates intracellularly in lysosomes. Alterations of the cell surface or the sensitive lysosomal membrane lead to lysosomal fragility and other changes that gradually become irreversible. Such changes caused by the action of xenobiotics result in a decreased uptake and binding of NR. It is thus possible to distinguish between viable, damaged, or dead cells, which is the basis of this assay. After treatment with the small-molecules inhibitors, NR uptake in cells will be measured by spectrophotometry at 540±10 nm.
Keratinocytes from healthy persons or patients with Netherton syndrome are seeded at the density of 4000 cells in 125 μL of medium per well in 96-well plates.
After seeding, cells are incubated for 48 hours in the following experimental conditions: 37° C.±1° C., 90%±5.0% humidity, and 5%±1% CO2/air. This incubation period allows for cell recovery and adherence and progression to exponential growth phase.
Prepare inhibitors solutions 2-fold more concentrated than desired. Add 125 μL of these solutions to the wells without changing or removing the medium (125 μL).
48 h hours after the beginning of the treatment, carefully remove the medium (containing the tested inhibitor) and rinse the cells very carefully with 250 μL pre-warmed PBS.
Add 250 μL NR medium and incubate (37° C.±1° C., 90%±5% humidity, and 5.0%±1% CO2/air) for 3±0.1 h. NR medium is the culture medium containing 33 μg/mL of NR. After incubation, remove the NR medium, and carefully rinse cells with 250 μL pre-warmed PBS.
Measure the absorption (within 60 minutes after adding NR Desorb solution) of the resulting colored solution at 540 nm±10 nm in a microtiter plate reader (spectrophotometer), using the blank as a reference.
A calculation of cell viability expressed as NRU is made for each concentration of the tested inhibitor by using the mean NRU of the three replicate values per each concentration. This value is compared with the mean NRU of all vehicle values. Relative cell viability is then expressed as percent of untreated vehicle control (DMSO).
Normal human keratinocytes were seeded in a 96-well tissue culture plate. At 20% of confluence, molecules were added in the culture medium and incubated for 48 h. Neutral red medium was added to every well for an incubation period of 3 h, then the dye was extracted with acidified ethanol solution. Data (FIGS. 2 and 3) represent the mean cell viability after treatment +/−SD compared to mean viability of cells treated with the vehicle only (DMSO). Data represent the mean of 5 individual experiments.

[5] = Table A, 37° C., 15 min of incubation, pH 8, read-out: IC50 (μM) KLK7
[6] = Table A, read-out: IC50 (μM) KLK14
[7] = Table A, read-out: IC50 (μM) KLK5
[8] = Table A2, 37° C., 15 min of incubation, pH 8, read-out: IC50 (nM) KLK7

SMILES | IC50 [1, 5] | cytotoxicity, neutral red uptake test [4] | selective activity against enzyme: KLK7 [1] | inhibition at 100 µM [2] | also measured
O=C(Oc1cc(F)ccc1F)c1cc2cc(CCl)ccc2oc1=O [CFL5] | 0.5 ± 0.04 µM | No noticeable cytotoxicity | – | – | IC50 [2, 6]: 39 ± 4 µM; inhibition at 100 µM [3]: 35%
COC(=O)c1cccc(OC(=O)c2cc3cc(CCl)ccc3oc2=O)c1 [IK2] | 0.68 ± 0.01 µM | No noticeable cytotoxicity | KLK7 | 67% | –
NC(=O)c1ccccc1OC(=O)c1cc2cc(CCl)ccc2oc1=O [IK3] | – | – | – | 77% | selective activity against enzyme: KLK14 ([2]; Table B, among KLK5, KLK7 and KLK14): KLK14; Toxicity, neutral red uptake test ([4]; 1 μM): 16.09±8.32%; Toxicity, neutral red uptake test ([4]; 10 μM): 47.1±4.43%
NC(=O)c1cccc(OC(=O)c2cc3cc(CCl)ccc3oc2=O)c1 [IK4] | 7.8 ± 0.6 µM | No noticeable cytotoxicity | – | – | IC50 [2, 6]: 30 ± 8 µM; IC50 [3, 7]: 21.6 ± 5 µM
O=C(Oc1ccccc1)c1cc2cc(CBr)ccc2oc1=O [JFR5, Phenyl 6-bromomethyl-2-oxo-2H-1-benzopyran-3-carboxylate] | – | – | – | – | IC50 [1, 8]: 0.249 ± 0.0035 µM; inhibition at 50 µM [2]: 53%; inhibition at 50 µM [3]: 34%; cytotoxicity, neutral red uptake test (FIG. 5) [4]: No noticeable cytotoxicity
O=C(Oc1cccc(Br)c1)c1cc2cc(CBr)ccc2oc1=O [JFR8, 3-Bromophenyl 6-bromomethyl-2-oxo-2H-1-benzopyran-3-carboxylate] | – | – | KLK7 | – | IC50 [1, 8]: 0.057 ± 0.002 µM; IC50 ([2]; Table A2, read-out: IC50 (nM) KLK14): 3 ± 0.1 µM; IC50 ([3]; Table A2, read-out: IC50 (nM) KLK5): 1.47 ± 0.06 µM; cytotoxicity, neutral red uptake test (FIG. 5) [4]: No noticeable cytotoxicity
O=C(Oc1cccc(F)c1)c1cc2cc(CBr)ccc2oc1=O [JFR11, 3-Fluorophenyl 6-bromomethyl-2-oxo-2H-1-benzopyran-3-carboxylate] | – | – | – | – | IC50 [1, 8]: 0.198 ± 0.008 µM; inhibition at 50 µM [2]: 48%; inhibition at 50 µM [3]: 42%; cytotoxicity, neutral red uptake test (FIG. 5) [4]: No noticeable cytotoxicity
O=C(Oc1ccc(Cl)cc1)c1cc2cc(CCl)ccc2oc1=O [LP7] | 0.463 ± 0.007 µM | No noticeable cytotoxicity | – | – | –
O=C(Oc1cccc(I)c1)c1cc2cc(CCl)ccc2oc1=O [LP14] | 0.077 ± 0.003 µM | No noticeable cytotoxicity | KLK7 | 70% | inhibition at 100 µM [3]: 48%
O=C(Sc1ccccc1)c1cc2cc(CCl)ccc2oc1=O [LP41] | 0.39 ± 0.03 µM | No noticeable cytotoxicity | – | 67% | inhibition at 100 µM [3]: 32%
O=C(Oc1cccc(Br)c1)c1cc2cc(CCl)ccc2oc1=O [LP53] | 0.065 ± 0.003 µM | No noticeable cytotoxicity | KLK7 | 41% | inhibition at 50 µM [3]: 34%
COc1cccc(OC(=O)c2cc3cc(CCl)ccc3oc2=O)c1 [LP55] | 8.4 ± 0.2 µM | No noticeable cytotoxicity | KLK7 | – | –
O=C(Oc1ccccc1[N+](=O)[O-])c1cc2cc(CCl)ccc2oc1=O [LP60] | 1.44 ± 0.02 µM | – | – | 46% | IC50 [3, 7]: 112 ± 6 µM
COc1cc(Cl)cc(OC(=O)c2cc3cc(CCl)ccc3oc2=O)c1 [LP61] | 0.13 ± 0.005 µM | No noticeable cytotoxicity | – | – | –
O=C(Oc1c(Cl)cccc1Cl)c1cc2cc(CCl)ccc2oc1=O [LP72] | 0.495 ± 0.037 µM | – | KLK7 | 50% | IC50 [3, 7]: 59 ± 9 µM
O=C(Oc1cc(Cl)ccc1Cl)c1cc2cc(CCl)ccc2oc1=O [LP74] | 0.195 ± 0.024 µM | – | KLK7 | – | IC50 [2, 6]: 54 ± 6 µM; IC50 [3, 7]: 1.3 ± 0.2 µM
COC(=O)c1cc2cc(CCl)ccc2oc1=O [MFS2] | 26.8 ± 1.5 µM | – | – | – | IC50 [2, 6]: 73 ± 14 µM; IC50 [3, 7]: 54 ± 2 µM
CCOC(=O)c1cc2cc(CCl)ccc2oc1=O [MFS3] | 20.9 ± 0.9 µM | – | – | 48% | inhibition at 50 µM [3]: 39%
O=C(Oc1ccccc1Cl)c1cc2cc(CCl)ccc2oc1=O [MFS36] | 0.209 ± 0.006 µM | – | KLK7 | 100% | inhibition at 100 µM [3]: 50%
O=C(Oc1ccccc1)c1cc2cc(O)c(O)cc2oc1=O [MH22] | – | – | – | – | inhibition at 50 µM ([1]; 50 μM, 37° C., 15 min of incubation, pH 8): 100%; inhibition at 50 µM [2]: 85%; inhibition at 50 µM [3]: 32%
O=C(Oc1ccccc1)c1cc2cc(CO)ccc2oc1=O [MH30] | 33.2 ± 1.4 µM | – | – | – | inhibition at 50 µM [2]: 32%; inhibition at 50 µM [3]: 25%
